Measured values as given in patent US8552058B2, “Application of L-n-butylphthalide in preventing and treating dementia” (CSPC Zhongqi Pharmaceutical Technology (Shijazhuang) Co., …, priority 2004, dated 2013).
Entries after “also recorded” stand apart in the source; their conditions may differ.

Columns and labels:
[1] = tested on: rats with permanent ligation of bilateral common carotid arteries (2-VO model); assay: Morris' water maze (training latency, platform exploration) in 2-VO hypoperfusion model; type: in vivo, Wistar rats; conditions: for effect on detention time in the target quadrant (platform exploration test) / improvement of latency / search strategy in water maze: 2-VO rats; for improvement of latency / search strategy in water maze: vs solvent control; for amelioration of impaired short-term memory and spatial orientation (overall conclusion): 2-VO rats with poor blood supply to brain, L-NBP at 10 mg/kg, 10 mg/kg
[2] = tested on: rats with continuous perfusion of Aβ (1-40) into lateral ventricle; assay: Morris' water maze and working memory test after continuous i.c.v. perfusion of Aβ (1-40); type: in vivo, Wistar rats; conditions: continuous perfusion of Aβ (1-40) into lateral ventricle, rats, Morris' water maze
Description: For Morris' Water Maze Automatic Monitor and experimental protocols, reference may be made to the experiments of learning and memory damage of rats induced by brain hypoperfusion.
Male Wistar rats, which were 10-weeks old and weighed approximately 280 grams, were used. One animal was placed in one cage, while the room temperature was kept at 23° C., with food and water freely accessible. Rats were anaesthetized with sodium pentobarbital (40 mg/kg), and were fixed to stereotaxic apparatus with the position of ventral decubitus. Head skin was cut open, a cannula for Aβ (1-40) perfusion was implanted into right ventricle. According to the stereotaxic profile of rat brain by Paxions and Watson, the implantation site was located 0.3 mm behind and 1.1 mm in the right side of anterior fontanelle, with the depth of 4.0 mm. The cannula was connected to a micro-osmotic pump. The pump was placed on the back of the rat. Aβ (1-40) was dissolved in 35% acetonitrile/0.1% trifluroacetic acid, and was continuously perfused intracerebroventricularly (i.c.v.) at 300 pmol/day, while only the solvent (35% acetonitrile/0.1% trifluroacetic acid) was perfused in the control group.
Rats were randomly classified into […] groups, with 10 animals per group. 1) the sham surgery group: only 35% acetonitrile/0.1% trifluroacetic acid+solvent was perfused into the ventricles of the rats; 2) the model group: Aβ (1-40)+solvent; 3) Aβ (1-40)+L-NBP 10 mg/kg group; 4) Aβ (1-40)+L-NBP 30 mg/kg group. Respective drug or solvent was drenched since the 2nd day after the surgery. The water maze experiment was performed on the 9-13 day after the surgery, while the platform exploration experiment was performed on the 13th day, and the working memory test was performed on the 14-16th days. Animals were decapitated to remove brains for biochemical assay on the 17th day. In all ethological tests, medicines were administered 40 minutes prior to the respective test.
The water maze training experiment was performed on the 9-13th day after icv Aβ (1-40), and the platform exploration experiment was performed on the 13 day after that. The working memory test was performed on the 14-16th day after icv Aβ (1-40) (see the figure above), which investigated the ability of rapid learning and spatial memory in animals when the platform and quadrant were changed, based on the fact that animals had memorized in some extent after training and platform exploration experiment. Experimental procedure was similar to the standard water maze training experiment except that the platform's location was changed every day. The experiment was conducted five times every day, allowing the rats to start swimming from five water-entry sites respectively. […] In the following 4 experiments, the location of the platform was kept constant, yet the water entry sites were within different quadrants. The latency of working memory was calculated by averaging those of the 2-5th experiments, and the ability of working memory of each rat was calculated by averaging the experimental values in 3 days.
All results were expressed in mean±standard error. Comparison of latencies between groups in water maze experiment was performed using two-factor analysis of variance in replicate. Comparison between groups was performed using post hoc LSD or Turkey test. Platform exploration test in water maze experiment, working memory test and biochemical assay were analyzed using one-factor analysis of variance. A difference was considered significant when p<0.05.

[3] = tested on: rats with coriamyrtin-induced impaired learning and memory; conditions: Shuren Yu et al. 1988, cited from earlier work

Q: For CCCCC1OC(=O)c2ccccc21 (racemic) [DL-NBP, 3-n-butylphthalide], which “effect on detention time in the target quadrant (platform exploration test)” value ([1]; 10 mg/kg oral) is on record?
A: no effect

Q: And the “improvement of latency / search strategy in water maze” value ([1]; 10 mg/kg oral)?
A: no significant effect of improvement; also recorded: no obvious improved effect

Q: What about the “effect on detention time in the target quadrant (platform exploration test)” value ([1]; 30 mg/kg oral) of the same compound?
A: no effect

Q: And the “improvement of latency / search strategy in water maze” value ([1]; 30 mg/kg oral)?
A: no significant effect of improvement; also recorded: no obvious improved effect

Q: What about the “amelioration of impaired short-term memory and spatial orientation (overall conclusion)” value ([1]; listed as racemic (DL-)) of the same compound?
A: could not

Q: And the “amelioration of impaired short-term memory and spatial orientation (overall conclusion)” value ([1]; listed as racemic butylphthalide)?
A: neither racemic butylphthalide nor D-butylphthalide were effective

Q: What about the “amelioration of impaired short-term memory and stereotaxic memory (overall conclusion)” value [2] of the same compound?
A: neither D-NBP nor DL-NBP showed similar effects

Q: What about the “improvement of impaired learning and memory induced by coriamyrtin” value [3] of the same compound?
A: could be used to improve the impaired learning and memory

Q: And the “protection of hippocampal cells” value ([3]; coriamyrtin)?
A: protect hippocampal cells

Q: Which results are given for CCCC[C@H]1OC(=O)c2ccccc21 [D-NBP, D-n-butylphthalide]?
A: improvement of latency / search strategy in water maze ([1]; 30 mg/kg oral): no significant effect of improvement; also recorded: no obvious improved effect; amelioration of impaired short-term memory and spatial orientation (overall conclusion) [1]: could not; amelioration of impaired short-term memory and spatial orientation (overall conclusion) ([1]; listed as D-butylphthalide): neither racemic butylphthalide nor D-butylphthalide were effective; amelioration of impaired short-term memory and stereotaxic memory (overall conclusion) [2]: neither D-NBP nor DL-NBP showed similar effects
